In PubChem BioAssay AID1259407 (Chemical Carcinogenesis Research Information System (CCRIS), 2018):
Active and inactive are the calls of the source. How the calls were made is not given here.

System: CCRIS mutagenicity, Ames/micronucleus/aberration tests
Test: CCRIS mutagenicity studies
Settings: Test System: CHINESE HAMSTER V-79; Strain/Indicator: V-79/8-AZAGUANINE; Metabolic Activation: NONE; Method: STANDARD PLATE

SMILES: Oc1cc2cc3c(ccc4ccccc43)cc2c2ccccc12
- mutagenic call: active; positive
